The text below walks through data of patent US10067124B2, “Immunoassay method for pro-gastrin-releasing peptide” (Abbott Laboratories, priority 2006, dated 2018).

Each structure is given as a SMILES string.

In the assay the test system is serine protease such as thrombin. The assay can be described thus: Stabilization of ProGRP in serum by addition of PMSF (Example 2). Type of assay: biochemical. The conditions noted are these: PMSF added to serum, room temperature storage. The method, then:
After PMSF (manufactured by Sigma-Aldrich Co.) was added to serum, ProGRP 31-98 antigen amino no acid synthesized by the Fmoc method was added thereto. After the mixture was stored at room temperature, the concentration of ProGRP was assayed using the Architect ProGRP. […] PMSF is a substance that is used to inactivate the activity of an enzyme of a serine protease such as thrombin and the presence of a protease such as thrombin can be considered to be the cause of ProGRP inactivation.

Take `O=S(=O)(F)Cc1ccccc1` [PMSF, Phenylmethanesulfonyl Fluoride]: the “effect on decrease in the activity of ProGRP in serum” value is “significantly suppressed”.
